Measurements: a melting point compilation (Tetko et al.; mined from patent text by program, amines drawn as free bases though some values may be those of a salt)

SMILES	melting point
O[C@@H]1CN(CC2CC2)CC[C@@H]1c1ccccc1 (relative stereo)	94 to 97 °C
O=C1CN(c2cncc(Cl)n2)CCN1	192 to 193 °C
CCCC[C@H](NC(=O)OC(C)(C)C)C(=O)CCCc1cccs1	50.5 to 52.5 °C
CC1CC(=O)NN=C1c1ccc(-n2cccc2)nc1 (centres undefined)	192 to 193 °C
COc1ccc(C2CC(c3ccc(O)cc3)C2)cc1 (centres undefined)	96 to 110 °C
O=C(O)c1ccc(OC2=C3N=C4CCCCC4=C3C(CCCCc3ccccc3)C=C2)o1 (centres undefined)	120 to 121 °C
O=C1C=CC(=O)N1c1ccc(Cl)cc1	109 to 110 °C
O=C(NC(Cc1ccc([N+](=O)[O-])cc1)C(=O)C(F)(F)F)c1ccccc1 (centres undefined)	175 °C
CC1=C(C)C(O)N(c2nnc(C(C)(C)C)s2)C1=O (centres undefined)	179 to 182 °C
O=c1[nH]c(Cl)c(Cc2ccccc2)c(=O)n1Cc1ccccc1	146 to 148 °C
CCCCCCCc1ccc(C(=O)Cc2cccc(C#N)c2)cc1	68 °C
Oc1ccc(C(F)(F)F)cc1-n1nc2ccccc2n1	119 to 120 °C
Nc1nc(N)c2cc(Cc3ccc4ccccc4c3)ccc2n1	256 to 257 °C
OCc1ccccc1SCc1cc2c(cc1O)CCCO2	140 to 141 °C
CS(=O)(=O)c1ccc(-c2cnn(Cc3cccnc3)c(=O)c2-c2ccc(F)cc2)cc1	160 to 161 °C
Nc1cccc2c1CN(c1nc3c(cc1F)c(=O)c(C(=O)O)cn3C1CC1)C2	> 300 °C
Oc1ccc2c(c1)CCC(CCN1CCCCC1)C2 (centres undefined)	154 to 157 °C
CC(C)c1cccc(C(C)C)c1-c1cc(OCc2ccccc2)ccc1CC(NC(c1ccccc1)c1ccccc1)C(N)=O (centres undefined)	148 to 150 °C
CC(C)(C)OC(=O)[C@@H]1CSC(C2CCCCC2)N1C(=O)CNC(=O)Nc1cccc(CC(=O)O)c1 (some centres undefined)	115 °C
CC(OC(=O)c1ccccc1)C(N)=O (centres undefined)	116 to 117 °C
O=C(c1ccccc1)c1ccc(O)c2ncccc12	115 to 116 °C
COC1NC(=O)CC2CC1c1ccccc12 (centres undefined)	205 to 207 °C
NS(=O)(=O)C(F)(F)C(F)(F)C(F)(F)C(F)(F)C(F)(F)C(F)(F)F	165 to 168 °C
CCCC[C@H](NC(=O)[C@H](CC(C)C)NC(=O)C1CCN(C(C)=O)CC1)C(=O)CSCc1ccco1	110 to 112 °C
NS(=O)(=O)c1ccc(-c2nc(C(F)(F)F)[nH]c2-c2ccc(F)cc2)cc1	259 to 260 °C

SMILES	melting point
CCC(C)CC1OC(CC(=O)Nc2ccc(F)c(CCC(=O)O)c2)C(=O)N(CC(C)(C)CO)c2ccc(Cl)cc21 (centres undefined)	123 to 125 °C
CC(=O)OC1(c2ccc(Cl)cc2)CCN(CCCC(=O)c2ccc(F)cc2)CC1	106 to 110 °C
CC1=C(C)C(=O)N(CCN(C)C)C1=O	9 °C
COc1ccc(OC)c2c1C[C@](O)(C1(C)OCCO1)CC2=O	183 to 184 °C
O=C1CCc2c1ccc(F)c2F	28 to 32 °C
O=C1Nc2cc(CN3CCC(c4ccccc4)CC3)ccc2OC1F (centres undefined)	217 to 221 °C
COc1cccc([C@H]2O[C@H](CC(=O)Nc3ccc4oc(CCC(=O)O)cc4c3)C(=O)N(CC(C)(C)CO)c3ccc(Cl)cc32)c1OC	207 to 209 °C
N#CNC(=NC1CCN(CCCc2ccccc2)CC1)N1CCc2ccccc2C1	122 to 124 °C
O=C(c1ccccc1)c1cccc2c1OCC2C(=O)O (centres undefined)	163 to 165 °C
CNc1cc(Oc2cc(C(F)(F)F)nn2C)nc(Oc2cc(C(F)(F)F)nn2C)c1	118 °C
CC(Br)c1nc2ccccc2c(=O)n1-c1ccc(F)cc1 (centres undefined)	180 °C
O=C(NC(CO)C(=O)c1ccc(Cl)cc1)C1CCN(C(=O)OCc2ccccc2)CC1 (centres undefined)	116 to 118 °C
NC(=O)N(O)Cc1ccc2c(c1)CCN2CCCc1ccccc1	94 to 94.5 °C
Oc1ccc(Oc2cccc(-c3c(Cc4ccccc4)cnc4c(C(F)(F)F)cccc34)c2)cc1	55 to 60 °C
CCOC(=O)C(Cc1cccc(OCC(F)(F)C(F)F)c1)C(=O)c1ccc(F)cc1 (centres undefined)	55 to 56 °C
Cc1cc(-c2nncc3c(C(C)(C)C)c(OCc4cccnc4)nn23)no1	139 to 141 °C
O=C(Nc1ccc(CCCc2nnn[nH]2)cc1)C(F)(F)C(F)(F)C(F)(F)C(F)(F)C(F)(F)C(F)(F)C(F)(F)F	170 to 172 °C
COC(=O)[C@@H]1CSSCC(C)(C)C(=O)N1	87 to 89 °C
CS(=O)(=O)Nc1cccc(Nc2nc(NC3CN4CCC3CC4)c3nc[nH]c3n2)c1 (centres undefined)	200 to 204 °C
CSC(=C[N+](=O)[O-])NCCCOc1cccc(CN2CCCCC2)c1	68 to 69.5 °C
O=C(CC(=O)c1ccc(O)cc1O)c1ccc(OCc2ccccc2)c(OCc2ccccc2)c1	245 to 247 °C
Cc1ccc(CC(C)NCC(O)c2cc3ccccc3o2)cc1 (centres undefined)	88 to 100 °C
COc1ccc(N2CCN(c3ncc(-n4cn[nH]c4=O)cn3)CC2)cc1	272 °C
COCCNC(N)=Nc1ccccc1N1CCCCC1	218 to 220 °C

Second part, the compound after the results:

melting point	SMILES
238 to 240 °C	CN(C)C(=O)NCc1ccc(Nc2n[nH]c3ncnc(Nc4cccc(Cl)c4)c23)cc1
75 °C	COc1ccc2c(c1)-c1c(ccn1C[C@@H](C)O)C2
126 to 128 °C	CC(=O)C1C(=O)c2cccc(N)c2C1=O (centres undefined)
167 to 169 °C	CCOC(=O)C(=O)Nc1cc(=O)c2ccccc2o1
74 to 76 °C	O=C(c1cccs1)C1(c2ccc(Cl)cc2)CCC1
127 °C	COc1cc2c(cc1C#Cc1ccc(C)cc1)C(C)(C)CCC2(C)C
> 250 °C	Cc1ccc2c(c1)C(=NNC(=N)N)CC2
88 to 89 °C	COC(=O)CN(C)c1nc(-c2ccc(Cl)c(Cl)c2)cs1
74 to 77 °C	COc1cc(NC(=O)CCCCCN2CCCN(C)CC2)c2nccc(C)c2c1
96 to 97 °C	CCOC(=O)n1nc2c(c1N)CN(C(=O)N[C@H](CN(C)C)c1ccccc1)C2(C)C
> 350 °C	COc1ccc2[nH]c(=O)n3c(=O)[nH]nc3c2c1
122 to 124 °C	CC(C)(C)OC(=O)N1C(=O)CCC1c1ccc(Br)cc1 (centres undefined)
187 to 189 °C	COc1ccc(C(=C/C=C/C(=O)O)c2ccc(OC)cc2)cc1
231 to 249 °C	COc1ccc(NC(=O)c2ccc(F)c(F)c2)cc1NS(=O)(=O)c1ccc([N+](=O)[O-])cc1
256 to 258 °C	O=C1Nc2ccccc2C1c1cc(Cl)ccc1O (centres undefined)
187 to 189 °C	COc1ccc(/C=C(/C(=O)O)c2cc(OC)c(OC)c(OC)c2)cc1
229 to 231 °C	O=C(O)C(=O)NC1N=C2C(=Cc3ccccc32)S1 (centres undefined)
199 to 201 °C	CNC(=O)Cn1c(-c2cccc(Br)c2)nc2cccnc21
233 to 234 °C	CNC(=O)Nc1nccc(Oc2ccc3c(C(=O)Nc4ccc(F)c(C(F)(F)F)c4)cccc3c2)n1
153 to 156 °C	Cc1ccc(C)c(OCc2ccccc2C(=NOC(F)F)C(N)=O)c1
> 250 °C	NCC1Cc2c(C(F)(F)F)ccc(Cl)c2O1 (centres undefined)
122 to 126 °C	O=C(NCC12CC3CC(CC(C3)C1)C2)c1cc(-c2ncccc2OCc2nnn[nH]2)ccc1Cl
138 to 139 °C	COc1cnc(NS(=O)(=O)c2cccc(Cl)c2Cl)c(OC)n1
147 to 148 °C	COc1ccc(CN2C(=O)C3CC(c4ccc(N)cc4)(C3)C2=O)cc1
56 to 60 °C	Cc1cc(Cl)c(-n2nc(C)n(C(F)F)c2=O)cc1OC(C)C(=O)O (centres undefined)
235 to 238 °C	COC(=O)c1cc(C(=O)N2CCC(C(N)=O)CC2)c2cc(Cc3ccc(F)cc3)cnc2c1O
30 to 32 °C	CCOc1nc(Cl)ncc1F
81 to 82 °C	CCOP(=O)(OCC)C(O)c1cccc(F)c1 (centres undefined)

melting point	SMILES
215 to 216 °C	Cc1ccc2ccccc2c1Nc1ccccc1C(=O)O
210 to 213 °C	O=C1c2sccc2-n2cnc(-c3noc(CCl)n3)c2[C@@H]2CCN12
215 to 224 °C	O=C(O)c1cn(-c2c[nH]nn2)c2cc(F)c(F)cc2c1=O
85 to 87 °C	CC(C)(S)CNCc1ccc(O)cc1
222 to 224 °C	NC(=O)C(=Cc1c[nH]c2ncccc12)c1ccccc1
68 to 70 °C	CCOC(=O)c1c(N)cc([N+](=O)[O-])cc1CC
181 to 182 °C	CCOCc1nc2c(N)nc3cc(OCc4ccc(OC)cc4)ccc3c2n1CC(C)C
157 to 158 °C	CCCNC(=O)CCn1c(CCC)nc2c(N)nc3ccccc3c21
92 to 93 °C	O=C(c1ccc2nonc2c1)N1CC2CCC1C2 (centres undefined)
46.5 to 47.5 °C	Cc1ccc(C#N)cc1Cl
183 to 185 °C	Cc1ccccc1-c1c(C(=O)N(C)Cc2cc(C(F)(F)F)cc(C(F)(F)F)c2)n(C)c(=O)c2cccnc12
175 to 176 °C	O=c1cnn(-c2cc(Cl)c(Cc3ccc(Cl)cc3)c(Cl)c2)c(=O)[nH]1
> 260 °C	Nc1ccc(-c2nc3c(s2)C(=O)c2ccccc2C3=O)o1
219 to 220 °C	O=C1COc2ccc3ccccc3c2N1
112 °C	CCCCc1ccc(OC)c(-c2csc(NC(=O)c3ccc(C(=O)CCN4CCC(NC(C)=O)C4)cc3)n2)c1 (centres undefined)
160 to 161 °C	Brc1cc2c(cc1Br)Sc1ccccc1S2
127 to 130 °C	CC(=O)Nc1ccc(Br)c2c1CN(C(C)=O)CC2
116 to 119 °C	Cc1ccccc1C(=O)Oc1cc(O)ccn1
196 to 197 °C	Brc1ccc(-c2nnnn2Cc2ccccc2)s1
219 to 221 °C	Clc1c(CBr)ccc2c(Cl)c(CBr)ccc12
79 to 80 °C	Cc1oc(-c2ccccc2)nc1COc1cccc(CCl)c1
175 to 177 °C	Cc1cc(C)c2c(=O)n(CC(=O)N3CCNCC3)sc2n1
172 °C	CCOC(=O)C1CN(C2CC2)c2nc3cc(F)c(F)cc3cc2C1=O (centres undefined)
> 300 °C	Cc1ccc(-c2c(Cl)nc(-c3cccs3)nc2NS(=O)(=O)c2ccc(C(C)(C)C)cc2)cc1
215 °C	CCOC(=O)c1cccc(NC(=O)CN2C(=O)c3ccccc3C2=O)c1
145 to 149 °C	CS(=O)(=O)Nc1cc(OCCC(=O)O)ccc1Oc1ccccc1
245 to 250 °C	Cc1ccc(C=C2SC(=S)N(CC(=O)O)C2=O)cc1
